Assay results from patent publication US20250230154A1, “COMPOUND HAVING SHP2 PROTEIN DEGRADING ACTIVITY, AND MEDICAL USES THEREOF” (UBIX THERAPEUTICS, INC., priority 2021, published 2025).

Target: T1, SHP2 protein (Homo sapiens, UniProt Q06124)
T1 sequence (Q06124 1-593): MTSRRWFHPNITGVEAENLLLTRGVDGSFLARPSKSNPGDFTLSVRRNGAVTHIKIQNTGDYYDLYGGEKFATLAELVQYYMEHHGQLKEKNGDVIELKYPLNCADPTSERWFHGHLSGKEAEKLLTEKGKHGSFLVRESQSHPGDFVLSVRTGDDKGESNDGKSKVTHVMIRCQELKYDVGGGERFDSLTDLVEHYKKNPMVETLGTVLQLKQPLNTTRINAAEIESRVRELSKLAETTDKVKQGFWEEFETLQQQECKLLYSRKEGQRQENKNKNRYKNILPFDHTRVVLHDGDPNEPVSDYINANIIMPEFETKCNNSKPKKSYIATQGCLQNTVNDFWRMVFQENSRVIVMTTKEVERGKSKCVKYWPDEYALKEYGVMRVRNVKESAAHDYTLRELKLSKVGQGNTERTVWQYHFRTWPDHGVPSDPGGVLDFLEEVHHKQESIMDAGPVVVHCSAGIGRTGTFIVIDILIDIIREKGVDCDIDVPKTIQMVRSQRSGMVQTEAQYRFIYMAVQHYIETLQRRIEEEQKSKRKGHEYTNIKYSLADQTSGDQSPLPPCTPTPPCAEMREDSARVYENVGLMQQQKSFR
Test: Measurement of SHP2 protein degradation in MV-4-11 cells (western blotting)
Format: cell-based
Parameters: endogenous in cells; host or cells: MV-4-11
Settings: MV-4-11 cells, 24 hours
Method in brief: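 SHP2 protein levels were assessed by western blotting in MV-4-11 cells after a 24 hour compound treatment. Lysates were sonicated, centrifuged, normalized by BCA assay at 562 nm, run on Bis-tris 4-12% gels, transferred to NC membrane, probed with anti-SHPTP2 (70 kDa) and anti-GAPDH (37 kDa) antibodies, and detected on LI-COR Odyssey.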

SMILES	SHP2 degradation (%) 10 nM	SHP2 degradation (%) 100 nM	SHP2 degradation (%) 1000 nM
Cc1ncsc1-c1ccc(CNC(=O)[C@@H]2C[C@@H](O)CN2C(=O)[C@@H](NC(=O)C2(F)CC2)C(C)(C)C)c(OCCN2CCN(CC(=O)Nc3cccc(Sc4cnc(N5CCC(C)(CN)CC5)cn4)c3Cl)C(=O)C2)c1 [Example 76, (2S,4R)—N-(2-(2-(4-(2-((3-((5-(4-(aminomethyl)-4-methylpiperidin-1-yl)pyrazin-2-yl)thio)-2-chlorophenyl)amino)-2-oxoethyl)-3-oxopiperazin-1-yl)ethoxy)-4-(4-methylthiazol-5-yl)benzyl)-1-((S)-2-(1-fluorocyclopropane-1-carboxamido)-3,3-dimethylbutanoyl)-4-hydroxypyrrolidine-2-carboxamide]	94.2%	99.5%	–
Cc1ncsc1-c1ccc(CNC(=O)[C@@H]2C[C@@H](O)CN2C(=O)[C@@H](NC(=O)C2(F)CC2)C(C)(C)C)c(OCCN2CCN(c3ncc(C(=O)Nc4cccc(Sc5cnc(N6CCC(C)(CN)CC6)cn5)c4Cl)cn3)CC2)c1 [Example 84, N-(3-((5-(4-(aminomethyl)-4-methylpiperidin-1-yl)pyrazin-2-yl)thio)-2-chlorophenyl)-2-(4-(2-(2-(((2S,4R)-1-((S)-2-(1-fluorocyclopropane-1-carboxamido)-3,3-dimethylbutanoyl)-4-hydroxypyrrolidine-2-carboxamido)methyl)-5-(4-methylthiazol-5-yl)phenoxy)ethyl)piperazin-1-yl)pyrimidine-5-carboxamide]	48.7%	97.1%	–
Cc1ncsc1-c1ccc(CNC(=O)[C@@H]2C[C@@H](O)CN2C(=O)[C@@H](NC(=O)C2(F)CC2)C(C)(C)C)c(OC2CC3(CCN(c4ccc(C(=O)Nc5cccc(Sc6cnc(N7CCC(C)(CN)CC7)cn6)c5Cl)nn4)CC3)C2)c1 [Example 88, N-(3-((5-(4-(aminomethyl)-4-methylpiperidin-1-yl)pyrazin-2-yl)thio)-2-chlorophenyl)-6-(2-(2-(((2S,4R)-1-((S)-2-(1-fluorocyclopropane-1-carboxamido)-3,3-dimethylbutanoyl)-4-hydroxypyrrolidine-2-carboxamido)methyl)-5-(4-methylthiazol-5-yl)phenoxy)-7-azaspiro[3.5]nonan-7-yl)pyridazine-3-carboxamide]	16.5%	66.1%	–
Cc1ncsc1-c1ccc(CNC(=O)[C@@H]2C[C@@H](O)CN2C(=O)[C@@H](NC(=O)C2(F)CC2)C(C)(C)C)c(OCCCCN2CCN(CC(=O)Nc3cccc(Sc4cnc(N5CCC(C)(CN)CC5)cn4)c3Cl)C(=O)C2)c1 [Example 78, (2S,4R)—N-(2-(4-(4-(2-((3-((5-(4-(aminomethyl)-4-methylpiperidin-1-yl)pyrazin-2-yl)thio)-2-chlorophenyl)amino)-2-oxoethyl)-3-oxopiperazin-1-yl)butoxy)-4-(4-methylthiazol-5-yl)benzyl)-1-((S)-2-(1-fluorocyclopropane-1-carboxamido)-3,3-dimethylbutanoyl)-4-hydroxypyrrolidine-2-carboxamide]	86.6%	99.5%	–

Other lines, results leading:

SHP2 degradation (%) 10 nM	SHP2 degradation (%) 100 nM	SHP2 degradation (%) 1000 nM	SMILES
39.5%	92.6%	96.5%	Cc1ncsc1-c1ccc(CNC(=O)[C@@H]2C[C@@H](O)CN2C(=O)[C@@H](NC(=O)C2(F)CC2)C(C)(C)C)c(OCCCN2CCC(CC(=O)Nc3cccc(Sc4cnc(N5CCC(C)(N)CC5)cn4)c3Cl)CC2)c1 [Example 8, (2S,4R)—N-(2-(3-(4-(2-((3-((5-(4-amino-4-methylpiperidin-1-yl)pyrazin-2-yl)thio)-2-chlorophenyl)amino)-2-oxoethyl)piperidin-1-yl)propoxy)-4-(4-methylthiazol-5-yl)benzyl)-1-((S)-2-(1-fluorocyclopropane-1-carboxamido)-3,3-dimethylbutanoyl)-4-hydroxypyrrolidine-2-carboxamide]
67.0%	95.0%	–	Cc1ncsc1-c1ccc(CNC(=O)[C@@H]2C[C@@H](O)CN2C(=O)[C@@H](NC(=O)C2(F)CC2)C(C)(C)C)c(OCCCC2CCN(C(=O)CC(=O)Nc3cccc(Sc4ncc(N5CCC(C)(N)CC5)nc4N)c3Cl)CC2)c1 [Example 40, (2S,4R)—N-(2-(3-(1-(3-((3-((3-amino-5-(4-amino-4-methylpiperidin-1-yl)pyrazin-2-yl)thio)-2-chlorophenyl)amino)-3-oxopropanoyl)piperidin-4-yl)propoxy)-4-(4-methylthiazol-5-yl)benzyl)-1-((S)-2-(1-fluorocyclopropane-1-carboxamido)-3,3-dimethylbutanoyl)-4-hydroxypyrrolidine-2-carboxamide]
92.4%	99.5%	–	Cc1ncsc1-c1ccc(CNC(=O)[C@@H]2C[C@@H](O)CN2C(=O)[C@@H](NC(=O)C2(F)CC2)C(C)(C)C)c(OCCCN2CCN(CC(=O)Nc3cccc(Sc4cnc(N5CCC(C)(CN)CC5)cn4)c3Cl)C(=O)C2)c1 [Example 77, (2S,4R)—N-(2-(3-(4-(2-((3-((5-(4-(aminomethyl)-4-methylpiperidin-1-yl)pyrazin-2-yl)thio)-2-chlorophenyl)amino)-2-oxoethyl)-3-oxopiperazin-1-yl)propoxy)-4-(4-methylthiazol-5-yl)benzyl)-1-((S)-2-(1-fluorocyclopropane-1-carboxamido)-3,3-dimethylbutanoyl)-4-hydroxypyrrolidine-2-carboxamide]
77%	93.5%	94%	Cc1ncsc1-c1ccc(CNC(=O)[C@@H]2C[C@@H](O)CN2C(=O)[C@@H](NC(=O)C2(F)CC2)C(C)(C)C)c(OCCC2CCN(C(=O)CC(=O)Nc3cccc(Sc4cnc(N5CCC(C)(N)CC5)cn4)c3Cl)CC2)c1 [Example 34, (2S,4R)—N-(2-(2-(1-(3-((3-((5-(4-amino-4-methylpiperidin-1-yl)pyrazin-2-yl)thio)-2-chlorophenyl)amino)-3-oxopropanoyl)piperidin-4-yl)ethoxy)-4-(4-methylthiazol-5-yl)benzyl)-1-((S)-2-(1-fluorocyclopropane-1-carboxamido)-3,3-dimethylbutanoyl)-4-hydroxypyrrolidine-2-carboxamide]
85.9%	97.8%	–	Cc1ncsc1-c1ccc(CNC(=O)[C@@H]2C[C@@H](O)CN2C(=O)[C@@H](NC(=O)C2(F)CC2)C(C)(C)C)c(OCCN2CCN(C(=O)CC(=O)Nc3cccc(Sc4ncc(N5CCC(C)(CN)CC5)nc4N)c3Cl)CC2)c1 [Example 55, (2S,4R)—N-(2-(2-(4-(3-((3-((3-amino-5-(4-(aminomethyl)-4-methylpiperidin-1-yl)pyrazin-2-yl)thio)-2-chlorophenyl)amino)-3-oxopropanoyl)piperazin-1-yl)ethoxy)-4-(4-methylthiazol-5-yl)benzyl)-1-((S)-2-(1-fluorocyclopropane-1-carboxamido)-3,3-dimethylbutanoyl)-4-hydroxypyrrolidine-2-carboxamide]
